19 compounds from article PMC6736568, “Discovery of Novel Anti-cryptosporidial Activities From Natural Products by in vitro High-Throughput Phenotypic Screening” (Frontiers in Microbiology, 2019) can be followed below.

The inhibition is the relative decrease from the control value, in per cent.

Counter-ions that a name gives are not always drawn. Like-named read-outs stand apart in the source and are kept apart here.

Data set [1] has as its system Cryptosporidium parvum. The data set can be described thus: qRT-PCR assay of the growth of C. parvum in vitro in HCT-8 host cells (primary and secondary screening, EC50). It counts as cell-based. The following applies: Cryptosporidium parvum, HCT-8; for inhibition at 10 µM: primary screening at 10 uM, read-out: Inhibition (%). A general note: In qPCR the cycle at which signal appears reflects the starting amount.

For data set [2], the system named is HCT-8 host cells (Hs18S).
The nature of data set [3]: in vitro.
[4] abbreviates: primary screening at 10 uM, treated vs control.

`Nc1nc2c(c(=O)[nH]1)N=C(CNc1ccc(C(=O)N[C@@H](CCC(=O)O)C(=O)O)cc1)CN2` [DIHYDROFOLIC ACID]: in data set [1], the inhibition at 10 µM is -11.9%. The “Hs18S ΔCT” value in data set [2] (human, 41 h, 10 μM) is -0.36. Moreover, the cytotoxicity at 41 h, 10 µM in data set [3] (human) was -28.7%.
Regarding `CC(=O)O[C@@H]1C[C@H]2C(C)(C)C(=O)CC[C@]2(C)[C@H]2CC[C@@]3(C)[C@H](c4ccoc4)OC(=O)[C@H]4O[C@]43[C@@]21C` [DIHYDROGEDUNIN], the inhibition at 10 µM in data set [1] came to 33.3%. In data set [2] (human, 41 h, 10 μM), the “Hs18S ΔCT” value is -0.24. In addition, in data set [3] (human), the cytotoxicity at 41 h, 10 µM was -17.9%.
Take `CCCCCC1C(=O)CCC1CC(=O)OC` (stereo not shown) [DIHYDROJASMONIC ACID, METHYL ESTER]: the inhibition at 10 µM in data set [1] is -8.77%. In addition, the “Hs18S ΔCT” value in data set [2] (human, 41 h, 10 μM) is -0.06. The cytotoxicity at 41 h, 10 µM in data set [3] (human) is -4%.
For `COc1c(CC(=O)c2cc3c(cc2O)OC(C)(C)C(O)C3)ccc2c1C=CC(C)(C)O2` (stereo not shown) [DIHYDROMUNDULETONE], the inhibition at 10 µM in data set [1] amounted to 4.35%. The “Hs18S ΔCT” value in data set [2] (human, 41 h, 10 μM) was -0.10. For the same compound, the cytotoxicity at 41 h, 10 µM in data set [3] (human) was -7.4%.
As for `COc1cc2c(cc1OC)[C@@H]1C(=O)c3ccc4c(c3O[C@@H]1CO2)CC(C(C)C)O4` (stereo partly shown) [DIHYDROROTENONE], the inhibition at 10 µM in data set [1] was 10.4%. For the same compound, in data set [2] (setting [4]), the “Hs18S ΔCT” value amounted to 0.76. Besides, in data set [3], the cytotoxicity at 10 µM was determined as 40.9%.
Turning to `CN[C@@H]1[C@H](O[C@H]2[C@H](O[C@H]3[C@H](O)[C@@H](O)[C@H](NC(=N)N)[C@@H](O)[C@@H]3NC(=N)N)O[C@@H](C)[C@]2(O)CO)O[C@@H](CO)[C@H](O)[C@H]1O` [DIHYDROSTREPTOMYCIN SULFATE], the inhibition at 10 µM in data set [1] was 18%. For the same compound, the “Hs18S ΔCT” value in data set [2] (setting [4]) was determined as 0.05. In data set [3] (human), the cytotoxicity at 41 h, 10 µM worked out at 3.4%.
Consider `C[C@@H]1CC[C@@]2(OC1)O[C@H]1C[C@H]3[C@@H]4CC=C5C[C@@H](O)CC[C@]5(C)[C@H]4CC[C@]3(C)[C@H]1[C@@H]2C` [DIOSGENIN], for which the inhibition at 10 µM in data set [1] stood at 14.7%. The “Hs18S ΔCT” value in data set [2] (setting [4]) is given as 0.32. Further, the cytotoxicity at 10 µM in data set [3] was found to be 19.7%.
For `COc1ccc(-c2cc(=O)c3c(O)cc(O[C@@H]4O[C@H](CO[C@@H]5O[C@@H](C)[C@H](O)[C@@H](O)[C@H]5O)[C@@H](O)[C@H](O)[C@H]4O)cc3o2)cc1O` [DIOSMIN], in data set [1], the inhibition at 10 µM was 13.8%. The “Hs18S ΔCT” value in data set [2] (human, 41 h, 10 μM) was -0.65. Moreover, in data set [3] (human), the cytotoxicity at 41 h, 10 µM is -57.1%.
With `CC/C=C\C/C=C\C/C=C\C/C=C\C/C=C\C/C=C\CCC(=O)O` [DOCONEXENT], the inhibition at 10 µM in data set [1] was -24.5%. In addition, in data set [2] (human, 41 h, 10 μM), the “Hs18S ΔCT” value was -0.06. In addition, the cytotoxicity at 41 h, 10 µM in data set [3] (human) is -4%.
With `CCCCCCCCCCCCCCCCCCCCCCO` [DOCOSANOL], the inhibition at 10 µM in data set [1] came out at 24.4%. For the same compound, the “Hs18S ΔCT” value in data set [2] (human, 41 h, 10 μM) is on record as -0.38. Moreover, in data set [3] (human), the cytotoxicity at 41 h, 10 µM is -30.5%.
`COc1ccc([C@H]2COc3c(ccc(O)c3OC)C2)c(OC)c1O` [DUARTIN (-)]: in data set [1], the inhibition at 10 µM was -26.9%. The “Hs18S ΔCT” value in data set [2] (human, 41 h, 10 μM) is on record as -0.20. The cytotoxicity at 41 h, 10 µM in data set [3] (human) was -15.3%.
The like results for `COc1ccc2c(c1OC)OC[C@@H](c1ccc(OC)c(OC)c1OC)C2` [DUARTIN, DIMETHYL ETHER] were, in that order, -13.5%, -0.22 and -16.4%.
Taken in the same sequence, the figures for `O=c1oc2c(O)c(O)cc3c(=O)oc4c(O)c(O)cc1c4c23` [ELLAGIC ACID] were -14.6%, -0.05 and -3.6%.
As to `CCCCCCCCCCCC1=C(O)C(=O)C=C(O)C1=O` [EMBELIN], the inhibition at 10 µM in data set [1] was -5.38%. Also, the “Hs18S ΔCT” value in data set [2] (setting [4]) amounted to 0.13. Also, the cytotoxicity at 10 µM in data set [3] amounted to 8.8%.
With `CC[C@H]1CN2CCc3cc(OC)c(OC)cc3[C@@H]2C[C@@H]1C[C@H]1NCCc2cc(OC)c(OC)cc21` [EMETINE DIHYDROCHLORIDE], in data set [1], the inhibition at 10 µM turned out to be 97.3%. The inhibition at 3.3 µM in data set [1] (secondary screening at 3.3 uM, read-out: % Inhibition (3.3 uM)) amounted to 95%. Besides, the “Hs18S ΔCT” value in data set [2] (setting [4]) came out at 1.41. In data set [3], the cytotoxicity at 41 h, 10 µM was found to be 62.4%.
On to `Cc1cc(O)c2c(c1)C(=O)c1cc(O)cc(O)c1C2=O` [EMODIN], for which the inhibition at 10 µM in data set [1] is -18%. Also, the “Hs18S ΔCT” value in data set [2] (human, 41 h, 10 μM) was -0.04. The cytotoxicity at 41 h, 10 µM in data set [3] (human) is -3%.
On to `CC1(C)[C@@H](O)CC[C@]2(C)[C@H]3C(=O)C=C4[C@@H]5C[C@@](C)(C(=O)O)CC[C@]5(C)CC[C@@]4(C)[C@]3(C)CC[C@@H]12` [ENOXOLONE], for which the inhibition at 10 µM in data set [1] was -8.81%. Moreover, the “Hs18S ΔCT” value in data set [2] (human, 41 h, 10 μM) is -0.07. Also, the cytotoxicity at 41 h, 10 µM in data set [3] (human) was -5.3%.
The like results for `Oc1ccc([C@H]2Oc3cc(O)cc(O)c3C[C@H]2O)cc1` [EPIAFZELECHIN (2R,3R)(-)] were, in that order, -2.1%, -0.14 and -10.2%.
Turning to `COc1ccc([C@H]2Oc3cc(OC)cc(OC)c3C[C@H]2O)cc1` [EPIAFZELECHIN TRIMETHYL ETHER], the inhibition at 10 µM in data set [1] came out at 13.8%. For the same compound, the “Hs18S ΔCT” value in data set [2] (human, 41 h, 10 μM) is on record as 0.21. Also, in data set [3] (human), the cytotoxicity at 41 h, 10 µM was 13.4%.
